Assay results taken from ChEMBL document CHEMBL5331056 (Eur J Med Chem, 2022).

Experiments:
MCF7 = assay: Anticancer activity against human MCF7 cells assessed as cell growth inhibition measured after 72 hrs by MTT assay; assay type: functional, cell-based; conditions: MCF7, 72 h
PC-3 = assay: Anticancer activity against human PC-3 cells assessed as cell growth inhibition measured after 72 hrs by MTT assay; assay type: functional, cell-based; conditions: PC-3, 72 h
[1] = tested on: Human immunodeficiency virus; assay: Antiviral activity against HIV infected in MT4 cells assessed as viral replication; assay type: functional, organism-based; conditions: Human immunodeficiency virus 1, MT4
[2] = Antioxidant activity assessed as DPPH radical scavenging activity measured after 1 hrs; assay type: functional
[3] = Antioxidant activity assessed as DPPH radical scavenging activity measured after 30 mins; assay type: functional
Mus musculus [4] = assay: Antidiabetic activity in STZ-induced Swiss albino mouse assessed as blood glucose level at 5 microM/kg, ip administered twice daily measured after 21 days (reference value: 220 +/- 7.2mg/dl); assay type: functional; conditions: time 21 day
Mus musculus [5] = assay: Antidiabetic activity in STZ-induced Swiss albino mouse assessed as insulin level at 5 microM/kg, ip administered twice daily measured after 21 days (reference value: 88.7%); assay type: functional; conditions: time 21 day, at 5 µmol/kg
Mus musculus [6] = assay: Antidiabetic activity in STZ-induced Swiss albino mouse assessed as inhibition of IL-1beta level at 5 microM/kg, ip administered twice daily measured after 21 days relative to control; assay type: functional; set-up: scale not given: the % may be the effect or the level left; conditions: time 21 day, at 5 µmol/kg
Mus musculus [7] = assay: Antidiabetic activity in STZ-induced Swiss albino mouse assessed as inhibition of IFN-gamma level at 5 microM/kg, ip administered twice daily measured after 21 days relative to control; assay type: functional; set-up: scale not given: the % may be the effect or the level left; conditions: time 21 day, at 5 µmol/kg
Mus musculus [8] = assay: Antidiabetic activity in STZ-induced Swiss albino mouse assessed as inhibition of NO level at 5 microM/kg, ip administered twice daily measured after 21 days relative to control; assay type: functional; set-up: scale not given: the % may be the effect or the level left; conditions: time 21 day, at 5 µmol/kg
Mus musculus [9] = assay: Antiinflammatory activity in STZ-induced C57BL/6J mouse of non insulin dependent diabetes mellitus assessed as PPAR-alpha level at 30 mg/kg; assay type: functional
Mus musculus [10] = assay: Antidiabetic activity in STZ-induced C57BL/6J mouse assessed as increase in insulin sensitivity at 30 mg/kg; assay type: functional
[11] = Induction of insulin-sensitizing activity in insulin-resistant human HepG2 cells assessed as increase in glucose consumption at 30 ng/ml relative to control; assay type: functional, insulin-resistant human HepG2 cell
[12] = Induction of insulin-sensitizing activity in insulin-resistant human HepG2 cells assessed as increase in glucose consumption at 60 ng/ml relative to control; assay type: functional, insulin-resistant human HepG2 cell
Rattus norvegicus = assay: Antidiabetic activity against overnight fasted STZ-induced Wistar rat of type 1 diabetes assessed as increase in insulin level at 1 mg/kg, po by ELISA (reference value: 7.7 +/- 1.0 microIU/mL); assay type: functional
[13] = Toxicity in STZ-induced Wistar rat of type 1 diabetes assessed as coronary arterial flow rate at 3 mg/kg, ip administered twice daily measured after 4 weeks (reference value: 12.6 +/- 0.5 mL/min); assay type: organism-based; conditions: in vivo, 672 h

Which IC50 (MCF7) does the source give for `CCCCCCCCCCOC/C=C/c1cc(O)c(O)c(O)c1` here?
Its IC50 is 0.8 µM.

And the IC50 (PC-3)?
The IC50 was 0.6 µM.

For `O=C1C=C(Cn2cc(COc3ccc(CO)cc3)nn2)C(=O)C=C1O`, which IC50 [1] is on record?
The IC50 was 4.2 µM.

Which results are given for `CCCCCCCCCCOC/C=C/c1ccc(O)cc1`?
IC50 (MCF7): > 10 µM; IC50 (PC-3): > 10 µM

For `Oc1ccc(/C=C/COCCCCCCc2ccccc2)cc1O`, which IC50 (MCF7) is on record?
The IC50 was 2.4 µM.

And the IC50 (PC-3)?
The IC50 was 1.4 µM.

With `C[C@@]1(C(=O)O)O[C@H]1COC(=O)/C=C/c1ccc(O)c(O)c1` as the compound, how does the FRS50 [2] read?
The FRS50 was 43.8 µM.

Which IC50 [3] does the source give for `COC(=O)/C=C/c1cc(O)c(O)cc1O` here?
The IC50 was 53.3 µM.

Which FRS50 [2] does the source give for `O=C(/C=C/c1ccc(O)c(O)c1)O[C@@H]1C[C@](O)(C(=O)O)C[C@@H](OC(=O)/C=C/c2ccc(O)c(O)c2)[C@H]1O` here?
The FRS50 was 71.8 µM.

With `O=C(/C=C/c1ccc(O)c(O)c1)O[C@@H]1[C@H](O)C[C@@](O)(C(=O)O)C[C@H]1OC(=O)/C=C/c1ccc(O)c(O)c1` as the compound, how does the FRS50 [2] read?
The FRS50 was 19.8 µM.

For `O=C(O)/C=C/c1ccc(O)c(O)c1` [CAFFEIC ACID], which IC50 [3] is on record?
Its IC50 is 32.2 µM.

Which IC50 [3] does the source give for `COC(=O)/C=C/c1ccc(O)c(O)c1O` here?
The IC50 was 18.6 µM.

Which FRS50 [2] does the source give for `O=C(/C=C/c1ccc(O)c(O)c1)O[C@H]1[C@H](O)C[C@](O)(C(=O)O)C[C@H]1OC(=O)/C=C/c1ccc(O)c(O)c1` here?
Its FRS50 is 23.8 µM.

For `O=c1c(O)c(-c2ccc(O)c(O)c2)oc2cc(O)cc(O)c12`, which FRS50 [2] is on record?
Its FRS50 is 13.4 µM.

What does the source list for `CCCCCCCCCCOC/C=C/c1cccc(O)c1`?
IC50 (MCF7): > 10 µM; IC50 (PC-3): > 10 µM

What does the source list for `O=C(/C=C/c1ccc(O)c(O)c1)OCCc1ccccc1` [CAFFEIC ACID PHENETHYL ESTER]?
Activity (Mus musculus [4]): 137 mg/dL; Activity (Mus musculus [5]): 93.8%; Activity (Mus musculus [6]): 43.2%; Activity (Mus musculus [7]): 26.3%; Activity (Mus musculus [8]): 58.3%; Activity (Mus musculus [9]): 38.6%; Activity (Mus musculus [10]): 20.8%; Activity [11]: 17.1%; Activity [12]: 24.3%

For `Oc1ccc(/C=C/COCCc2ccccc2)cc1O`, which IC50 (MCF7) is on record?
Its IC50 is 8 µM.

What about the IC50 (PC-3) of the same compound?
Its IC50 is 1.2 µM.

Which IC50 (MCF7) does the source give for `Oc1ccc(/C=C/COCCCCCCc2ccccc2)cc1` here?
The IC50 was greater than 10 µM.

What about the IC50 (PC-3) of the same compound?
The IC50 was greater than 10 µM.

Which results are given for `Oc1ccc(/C=C/COCCc2ccccc2)cc1`?
IC50 (MCF7): > 10 µM; IC50 (PC-3): > 10 µM

For `O=C(/C=C/c1ccc(O)c(O)c1)NCCc1ccccc1` [CAFFEIC ACID PHENETHYL AMIDE], which Activity (Rattus norvegicus) is on record?
Its Activity is 14.9 uIU/ml.

And the Activity [13]?
The Activity was 11.2 mL/min.

For `CCCCCCCCCCOC/C=C/c1ccc(O)c(O)c1`, which IC50 (MCF7) is on record?
Its IC50 is 1.7 µM.

What about the IC50 (PC-3) of the same compound?
Its IC50 is 0.6 µM.

With `CC(=O)/C=C/c1ccc(O)c(O)c1O` as the compound, how does the IC50 [3] read?
Its IC50 is 16.8 µM.
